Measurements published in patent publication US9266857B2, “Bicyclic AZA compounds as muscarinic M1 receptor agonists” (Heptares Therapeutics Limited, priority 2012, dated 2016).
Read-outs that look alike come from different tables or passages of the source.

Assays:
Type in all cases: cell-based
[1] = biological target: T1, human muscarinic M2 receptor (Homo sapiens, UniProt P08172); assay: Alphascreen Surefire phospho-ERK1/2 functional assay, M2; conditions: for EC50: CHO cells stably expressing human M2, phospho-ERK1/2, read-out: pEC50 M2 (converted); for Emax: CHO, read-out: % Emax cf. ACh, M2
T1 construct: expressed in transfected cells
T1 sequence (P08172 1-466): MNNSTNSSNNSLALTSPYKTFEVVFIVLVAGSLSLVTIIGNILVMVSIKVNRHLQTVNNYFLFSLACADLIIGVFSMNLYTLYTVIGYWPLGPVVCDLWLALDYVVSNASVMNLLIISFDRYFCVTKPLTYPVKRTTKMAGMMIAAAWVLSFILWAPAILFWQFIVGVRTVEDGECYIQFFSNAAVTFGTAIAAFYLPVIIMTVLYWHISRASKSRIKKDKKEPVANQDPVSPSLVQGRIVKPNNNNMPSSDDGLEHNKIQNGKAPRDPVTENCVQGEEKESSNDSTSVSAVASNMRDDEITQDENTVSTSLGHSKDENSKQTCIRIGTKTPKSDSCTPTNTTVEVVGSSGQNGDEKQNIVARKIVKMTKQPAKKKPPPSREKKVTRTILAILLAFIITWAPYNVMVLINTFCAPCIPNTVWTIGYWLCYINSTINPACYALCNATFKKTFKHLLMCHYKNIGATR
Protocol: (§1) ERK1/2 phosphorylation is a downstream consequence of both Gq/11 and Gi/o protein coupled receptor activation, making it highly suitable for the assessment of M1, M3 (Gq/11 coupled) and M2, M4 receptors (Gi/o coupled), rather than using different assay formats for different receptor subtypes. CHO cells stably expressing the human muscarinic M1, M2, M3 or M4 receptor were plated (25K/well) onto 96-well tissue culture plates in MEM-alpha+10% dialysed FBS. Once adhered, cells were serum-starved overnight. Agonist stimulation was performed by the addition of 5 μL agonist to the cells for 5 min (37° C.). Media was removed and 50 μL of lysis buffer added. After 15 min, a 4 μL sample was transferred to 384-well plate and 7 μL of detection mixture added. Plates were incubated for 2 h with gentle agitation in the dark and then read on a PHERAstar plate reader.
(§2) pEC50 and Emax figures were calculated from the resulting data for each receptor subtype.

[2] = biological target: T2, human muscarinic M3 receptor (Homo sapiens, UniProt P20309); assay: Alphascreen Surefire phospho-ERK1/2 functional assay, M3; conditions: for EC50: CHO cells stably expressing human M3, phospho-ERK1/2, read-out: pEC50 M3 (converted); for Emax: CHO, read-out: % Emax cf. ACh, M3
T2 construct: expressed in transfected cells
Protocol: as §1, §2

[3] = biological target: T3, human muscarinic M4 receptor (Homo sapiens, UniProt P08173); assay: Alphascreen Surefire phospho-ERK1/2 functional assay, M4; conditions: for EC50: phospho-ERK1/2, read-out: pEC50 M4 (converted); for Emax: CHO
T3 construct: expressed in transfected cells
T3 sequence (P08173 1-479): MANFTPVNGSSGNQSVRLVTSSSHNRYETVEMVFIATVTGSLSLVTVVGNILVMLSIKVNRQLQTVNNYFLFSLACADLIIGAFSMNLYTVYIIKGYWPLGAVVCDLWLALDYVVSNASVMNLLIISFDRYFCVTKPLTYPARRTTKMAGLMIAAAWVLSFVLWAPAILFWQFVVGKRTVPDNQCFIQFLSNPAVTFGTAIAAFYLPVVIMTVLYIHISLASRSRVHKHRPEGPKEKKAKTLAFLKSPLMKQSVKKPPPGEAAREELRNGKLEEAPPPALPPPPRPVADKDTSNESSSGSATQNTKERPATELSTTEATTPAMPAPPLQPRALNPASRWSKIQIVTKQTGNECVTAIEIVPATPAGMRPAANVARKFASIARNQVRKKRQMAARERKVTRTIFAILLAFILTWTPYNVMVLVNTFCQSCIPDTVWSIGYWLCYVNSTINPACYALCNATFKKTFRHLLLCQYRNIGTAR
Protocol: as §1, §2

[4] = biological target: T4, human muscarinic M1 receptor (Homo sapiens, UniProt P11229); assay: Alphascreen Surefire phospho-ERK1/2 functional assay, M1; conditions: for EC50: CHO cells stably expressing human M1, phospho-ERK1/2, read-out: pEC50 M1 (converted); for Emax: CHO
T4 construct: expressed in transfected cells
T4 sequence (P11229 1-460): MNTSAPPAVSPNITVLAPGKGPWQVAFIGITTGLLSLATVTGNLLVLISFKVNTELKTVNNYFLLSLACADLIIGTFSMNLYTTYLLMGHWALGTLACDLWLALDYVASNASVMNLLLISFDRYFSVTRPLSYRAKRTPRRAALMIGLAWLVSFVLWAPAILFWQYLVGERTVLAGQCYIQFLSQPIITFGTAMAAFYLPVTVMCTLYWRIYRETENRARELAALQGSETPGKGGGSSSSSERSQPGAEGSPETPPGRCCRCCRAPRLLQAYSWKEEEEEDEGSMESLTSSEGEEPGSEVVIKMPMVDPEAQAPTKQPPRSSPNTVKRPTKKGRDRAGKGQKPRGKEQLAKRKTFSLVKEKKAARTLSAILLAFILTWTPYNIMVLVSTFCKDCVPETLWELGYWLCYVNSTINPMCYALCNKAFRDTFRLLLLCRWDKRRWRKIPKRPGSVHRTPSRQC
Protocol: as §1, §2

[5] = CHO cells stably expressing human M4
[6] = read-out: % Emax cf. ACh, M4, CHO cells stably expressing human M4, relative to ACh
[7] = read-out: % Emax cf. ACh, M1, CHO cells stably expressing human M1, relative to ACh

T2 sequence (P20309 whole entry): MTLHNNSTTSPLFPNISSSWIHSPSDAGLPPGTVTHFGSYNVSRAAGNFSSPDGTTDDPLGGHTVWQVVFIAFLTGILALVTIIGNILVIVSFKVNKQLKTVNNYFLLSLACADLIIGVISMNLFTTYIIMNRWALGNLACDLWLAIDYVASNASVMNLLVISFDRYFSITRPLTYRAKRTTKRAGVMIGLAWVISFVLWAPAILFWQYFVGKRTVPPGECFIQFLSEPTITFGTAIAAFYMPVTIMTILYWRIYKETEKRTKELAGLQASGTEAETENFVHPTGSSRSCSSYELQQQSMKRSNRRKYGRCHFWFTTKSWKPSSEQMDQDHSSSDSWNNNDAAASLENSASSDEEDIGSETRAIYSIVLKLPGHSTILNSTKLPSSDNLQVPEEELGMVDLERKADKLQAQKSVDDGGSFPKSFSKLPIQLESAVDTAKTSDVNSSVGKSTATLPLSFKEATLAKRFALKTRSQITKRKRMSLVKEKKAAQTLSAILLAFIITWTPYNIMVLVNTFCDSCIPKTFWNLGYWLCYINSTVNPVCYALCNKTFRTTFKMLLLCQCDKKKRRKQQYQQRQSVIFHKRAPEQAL

SMILES | EC50 [3, 5] | EC50 [4] | Emax ([3]; read-out: % Emax cf. ACh, M4) | Emax ([4]; read-out: % Emax cf. ACh, M1) | EC50 [1] | Emax [1] | EC50 [2] | Emax [2] | Emax [3, 6] | Emax [4, 7] | % Emax cf. ACh, M4 ([3]; CHO cells stably expressing human M4, relative to ACh, listed as 1 - Isomer 1)
CCOC(=O)N1[C@@H]2CCC[C@H]1CC(N1CCC(C(=O)NC3(C)CCC3)CC1)C2 (mixture of isomers) [Example 6 - mixture of diastereomers, ethyl 3-{4-[(1-methylcyclobutyl)carbamoyl]piperidin-1-yl}-9-azabicyclo[3.3.1]nonane-9-carboxylate] | 468 nM | 43.7 nM |  |  | > 20000 nM | 13% | > 20000 nM | 5% | 54% | 151% | 
CCOC(=O)N1C2CCC1CC(N1CCC(C(=O)NC3(C)CCC3)CC1)C2 (single isomer, unassigned) [Example 1 - Isomer 1, ethyl 3-{4-[(1-methylcyclobutyl)carbamoyl]piperidin-1-yl}-8-azabicyclo[3.2.1]octane-8-carboxylate] | 1020 nM | 324 nM |  |  |  |  |  |  |  | 99% | 51%
CCOC(=O)N1CCC2(CC(N3CCC(C(=O)NC4(C)CCC4)CC3)C2)C1 (mixture of isomers) [Example 9 - mixture of diastereomers, ethyl 2-{4-[(1-methylcyclobutyl)carbamoyl]piperidin-1-yl}-6-azaspiro[3.4]octane-6-carboxylate] | 380 nM | 51.3 nM | 66% | 142% | > 20000 nM | 6% | > 20000 nM | 5% |  |  | 
CCOC(=O)N1C2CCC1CC(N1CCC(F)(C(=O)NC3(C)CCC3)CC1)C2 (single isomer, unassigned) [Example 4 - Isomer 2, ethyl 3-{4-fluoro-4-[(1-methylcyclobutyl)carbamoyl]piperidin-1-yl}-8-azabicyclo[3.2.1]octane-8-carboxylate] | 1070 nM | 145 nM |  |  |  |  |  |  | 44% | 111% | 
[2H]C([2H])([2H])C1(NC(=O)C2CCN(C3CC4(CCN(C(=O)OC([2H])([2H])C([2H])([2H])[2H])C4)C3)CC2)CCC1 (single isomer, unassigned) [Example 30 - Isomer 2, (1,1,2,2,2-pentadeutero)ethyl 2-(4-{[1-(1,1,1-trideuteromethyl)cyclobutyl]carbamoyl}piperidin-1-yl)-6-azaspiro[3.4]octane-6-carboxylate] | 195 nM | 85.1 nM | 111% | 105% |  |  |  |  |  |  | 
CCOC(=O)N1CCC2(CC(N3CCC(C(=O)NC4(C)CCC4)CC3)C2)C1 (single isomer, unassigned) [Example 9 - Isomer 1, ethyl 2-{4-[(1-methylcyclobutyl)carbamoyl]piperidin-1-yl}-6-azaspiro[3.4]octane-6-carboxylate] | 589 nM | 302 nM | 67% | 102% |  |  |  |  |  |  | 
[2H]C([2H])([2H])C1(NC(=O)C2CCN(C3CC4(CCN(C(=O)OCC)C4)C3)CC2)C([2H])([2H])C([2H])([2H])C1([2H])[2H] (single isomer, unassigned) [Example 22 - Isomer 2, ethyl 2-(4-{[1-(1,1,1-trideuteromethyl)-2,2,3,3,4,4-hexadeuterocyclobutyl]carbamoyl}piperidin-1-yl)-6-azaspiro[3.4]octane-6-carboxylate] | 209 nM | 79.4 nM | 67% | 103% |  |  |  |  |  |  | 

The next lines start with results.

EC50 [3, 5] | EC50 [4] | Emax ([3]; read-out: % Emax cf. ACh, M4) | Emax ([4]; read-out: % Emax cf. ACh, M1) | SMILES | EC50 [1] | Emax [1] | EC50 [2] | Emax [2] | Emax [3, 6] | Emax [4, 7] | % Emax cf. ACh, M4 ([3]; CHO cells stably expressing human M4, relative to ACh, listed as 1 - Isomer 1)
646 nM | 309 nM | 56% | 113% | CCOC(=O)N1CCC2(CC(N3CCC(C(=O)NC(C)(C)CC)CC3)C2)C1 (mixture of isomers) [Example 16 - mixture of diastereomers, ethyl 2-{4-[(2-methylbutan-2-yl)carbamoyl]piperidin-1-yl}-6-azaspiro[3.4]octane-6-carboxylate] |  |  |  |  |  |  | 
204 nM | 28.2 nM | 77% | 112% | CCOC(=O)N1CCC2(CC(N3CCC(F)(C(=O)NC4(C)CCC4)CC3)C2)C1 (mixture of isomers) [Example 11 - mixture of diastereomers, ethyl 2-{4-fluoro-4-[(1-methylcyclobutyl)carbamoyl]piperidin-1-yl}-6-azaspiro[3.4]octane-6-carboxylate] | > 20000 nM | 6% | > 20000 nM | 4% |  |  | 
1020 nM | 363 nM | 42% | 109% | CCOC(=O)N1CCC2(CC(N3CCC(C(=O)NCC4CCC4)CC3)C2)C1 (mixture of isomers) [Example 19 - mixture of diastereomers, ethyl 2-{4-[(cyclobutylmethyl)carbamoyl]piperidin-1-yl}-6-azaspiro[3.4]octane-6-carboxylate] |  |  |  |  |  |  | 
257 nM | 81.3 nM | 110% | 108% | [2H]C([2H])([2H])COC(=O)N1CCC2(CC(N3CCC(C(=O)NC4(C([2H])([2H])[2H])CCC4)CC3)C2)C1 (single isomer, unassigned) [Example 26 - Isomer 2, (2,2,2-trideutero)ethyl 2-(4-{[1-(1,1,1-trideuteromethyl)cyclobutyl]carbamoyl}piperidin-1-yl)-6-azaspiro[3.4]octane-6-carboxylate] |  |  |  |  |  |  | 
309 nM | 324 nM | 106% | 120% | [2H]C([2H])([2H])COC(=O)N1CCC2(CC(N3CCC(C(=O)NC4(CF)CCC4)CC3)C2)C1 (single isomer, unassigned) [Example 28 - Isomer 2, (2,2,2-trideutero)ethyl 2-(4-{[1-(fluoromethyl)cyclobutyl]carbamoyl}piperidin-1-yl)-6-azaspiro[3.4]octane-6-carboxylate] |  |  |  |  |  |  | 
219 nM | 155 nM | 67% | 90% | CCOC(=O)N1CCC2(CC(N3CCC(C(=O)NC4(CF)CCC4)CC3)C2)C1 (single isomer, unassigned) [Example 23 - Isomer 2, ethyl 2-(4-{[1-(fluoromethyl)cyclobutyl]carbamoyl}piperidin-1-yl)-6-azaspiro[3.4]octane-6-carboxylate] |  |  |  |  |  |  | 
646 nM | 407 nM | 77% | 110% | [2H]C([2H])([2H])C([2H])([2H])OC(=O)N1CCC2(CC(N3CCC(C(=O)NC4(C([2H])([2H])[2H])C([2H])([2H])C([2H])([2H])C4([2H])[2H])CC3)C2)C1 (mixture of isomers) [Example 31 - mixture of diastereomers, (1,1,2,2,2-pentadeutero)ethyl 2-(4-{[1-(1,1,1-trideuteromethyl)-2,2,3,3,4,4-hexadeuterocyclobutyl]carbamoyl}piperidin-1-yl)-6-azaspiro[3.4]octane-6-carboxylate] |  |  |  |  |  |  | 
